Test results published in patent US8097730B2, “Bicyclic heterocycles useful as selective androgen receptor modulators” (Janssen Pharmaceutica N.V., priority 2006, dated 2012).
Like-named read-outs stand apart in the source and are kept apart here.

Columns and labels:
[1] = test system: Immature castrated male Sprague Dawley rats; ventral prostate and seminal vesicle; assay: Ventral Prostate and Seminal Vesicle Weight In Vivo Assay (antagonist activity, percent inhibition of testosterone-enhanced tissue weights); set-up: species or system rat; key to Inhibition of prostate (non-weight prostate weight, mg): level 1 agonist active if it produced greater than or equal to 30% stimulation of levator ani or ventral prostate at 30 mg/kg; level 2 agonist active if it produced greater than or equal to 5% but less than 30% stimulation of levator ani or ventral prostate at 30 mg/kg; listed herein as “inactive” as they did not meet the specified criteria defined above; conditions: compound oral once daily for five days with testosterone propionate 2 mg/kg s.c., classes defined at 30 mg/kg; for inhibition in vivo at 30 mg/kg: Rattus norvegicus, 120 h
Experimental: Ventral Prostate and Seminal Vesicle Weight In Vivo Assay
Immature (approximately 50 g) castrated male Sprague Dawley rats (Charles River) were treated once daily for five days with test compound ([…], in 30% cyclodextrin or 0.5% methylcellulose vehicle) and with testosterone propionate (given subcutaneously by injection at the nape of the neck at 2 mg/kg, in a volume of 0.1 mL in sesame oil). On the sixth day, the rats were euthanized by asphyxiation in carbon dioxide. Ventral prosatates and seminal vesicles were removed and their wet weights determined. Test compound activity was determined as the percent inhibition of testosterone-enhanced tissue weights, with a vehicle-treated control group set to zero percent and a testosterone alone-treated control group set to 100%.
Representative compounds of the present invention were tested according to the procedure described, with results as listed in Table 4 below.

[2] = test system: Immature castrated male Sprague Dawley rats; ventral prostate and levator ani; assay: Ventral Prostate and Levator Ani Weight In Vivo Assay (agonist activity, percent stimulation of tissue weight); set-up: species or system rat; key to % Prostate Stimulation: level 1 agonist active if it produced greater than or equal to 30% stimulation of levator ani or ventral prostate at 30 mg/kg; level 2 agonist active if it produced greater than or equal to 5% but less than 30% stimulation of levator ani or ventral prostate at 30 mg/kg; listed herein as “inactive” as they did not meet the specified criteria defined above; conditions: once daily for five days, oral, vehicle = 0%, testosterone alone = 100%, classes defined at 30 mg/kg; for change in vivo at 30 mg/kg: Rattus norvegicus, 120 h
Experimental: Ventral Prostate and Levator Ani Weight In Vivo Assay
Immature (approximately 50 g) castrated male Sprague Dawley rats (Charles River) were treated once daily for five days with test compound (usually given orally at 40 mg/kg in a volume of 0.3 mL, in 30% cyclodextrin or 0.5% methylcellulose vehicle) and with testosterone propionate (given subcutaneously by injection at the nape of the neck at 2 mg/kg, in a volume of 0.1 mL in sesame oil). On the sixth day, the rats were euthanized by asphyxiation in carbon dioxide. Ventral prostates and levator ani muscles were removed and their wet weights determined.
Test compound activity was determined as the percent stimulation of tissue weight, with the vehicle-treated control group set to zero percent and the testosterone alone-treated control group set to 100%. A compound was designated as level 1 agonist active if it produced greater than or equal to 30% stimulation of levator ani or ventral prostate at 30 mg/kg. A compound was designated as level 2 agonist active if it produced greater than or equal to 5% but less than 30% stimulation of levator ani or ventral prostate at 30 mg/kg.
Representative compounds of the present invention were tested according to the procedure described, with results as listed in Table 3 below.

[3] = ventral prostate wet weight, read-out: Inhibition of prostate (non-weight prostate weight, mg)
[4] = levator ani wet weight, read-out: % levator ani Stimulation
[5] = ventral prostate wet weight, read-out: % Prostate Stimulation
[6] = seminal vesicle wet weight, read-out: Inhibition of seminal vesicle (non-weight seminal vesicle weight, mg)

SMILES | inhibition in vivo at 30 mg/kg [1, 3] [%] | Inhibition of seminal vesicle (non-weight seminal vesicle weight, mg) ([1]; seminal vesicle wet weight) | change in vivo at 30 mg/kg [2, 4] [%] | change in vivo at 30 mg/kg [2, 5] [%] | inhibition in vivo at 30 mg/kg [1, 6] [%] | % levator ani Stimulation ([2]; levator ani wet weight) | % Prostate Stimulation ([2]; ventral prostate wet weight) | Inhibition of prostate (non-weight prostate weight, mg) ([1]; ventral prostate wet weight)
CC(=O)Nc1ccc(C2=NN3C(=O)N(c4ccc(C#N)c(C(F)(F)F)c4)C(=O)C3(C)C2)cc1 (centres unmarked) [Compound 7, N-{4-[5-(4-Cyano-3-trifluoromethyl-phenyl)-3a-methyl-4,6-dioxo-3a,4,5,6-tetrahydro-3H-imidazo[1,5-b]pyrazol-2-yl]-phenyl}-acetamide] | 5 to 30 | Inactive | 5 to 30 | 5 to 30 |  |  |  | 
C[C@@]12CC(C(F)(F)F)=NN1C(=O)N(c1ccc(C#N)c(C(F)(F)F)c1)C2=O [Compound 3, (S)-4-(3a-Methyl-4,6-dioxo-2-trifluoromethyl-3a,4-dihydro-3H-imidazo[1,5-b]pyrazol-5-yl)-2-trifluoromethyl-benzonitrile] | 5 to 30 |  | ≥ 30 | ≥ 30 | 5 to 30 |  |  | 
CC12CC=NN1C(=O)N(c1ccc(C#N)c(C(F)(F)F)c1)C2=O (centres unmarked) [Compound 4, 4-(3a-Methyl-4,6-dioxo-3a,4-dihydro-3H-imidazo[1,5-b]pyrazol-5-yl)-2-trifluoromethyl-benzonitrile] | 5 to 30 |  |  |  | 5 to 30 | Inactive | inactive | 
CC12CNC(=O)N1C(=O)N(c1ccc(C#N)c(C(F)(F)F)c1)C2=O (centres unmarked) [Compound 15, 4-(7a-Methyl-1,3,5-trioxo-tetrahydro-imidazo[1,5-c]imidazol-2-yl)-2-trifluoromethyl-benzonitrile] | ≥ 30 |  |  |  | ≥ 30 | Inactive | inactive | 
CN1CC2(C)C(=O)N(c3ccc(Cl)c(C(F)(F)F)c3)C(=O)N2C1=O (centres unmarked) [Compound 16, 2-(4-Chloro-3-trifluoromethyl-phenyl)-6,7a-dimethyl-dihydro-imidazo[1,5-c]imidazole-1,3,5-trione] | ≥ 30 |  |  |  | ≥ 30 | Inactive | inactive | 
CC12CC(C(F)(F)F)=NN1C(=O)N(c1ccc(C#N)c(C(F)(F)F)c1)C2=O (centres unmarked) [Compound 1, 4-(3a-Methyl-4,6-dioxo-2-trifluoromethyl-3a,4-dihydro-3H-imidazo[1,5-b]pyrazol-5-yl)-2-trifluoromethyl-benzonitrile] | 5 to 30 |  | ≥ 30 | 5 to 30 | 5 to 30 |  |  | 
CCOC(=O)C1=NN2C(=O)N(c3ccc([N+](=O)[O-])c(C(F)(F)F)c3)C(=O)C2(C)C1 (centres unmarked) [Compound 6, 3a-Methyl-5-(4-nitro-3-trifluoromethyl-phenyl)-4,6-dioxo-3a,4,5,6-tetrahydro-3H-imidazo[1,5-b]pyrazole-2-carboxylic acid ethyl ester] | 5 to 30 |  |  |  | 5 to 30 | Inactive | inactive | 
CC12COC(=O)N1C(=O)N(c1ccc(Cl)c(C(F)(F)F)c1)C2=O (centres unmarked) [Compound 12, 6-(4-Chloro-3-trifluoromethyl-phenyl)-7a-methyl-dihydro-imidazo[1,5-c]oxazole-3,5,7-trione] | 5 to 30 |  |  |  | 5 to 30 | Inactive | inactive | 
CCOC(=O)C1=NN2C(=O)N(c3ccc(C#N)c(C(F)(F)F)c3)C(=O)C2(C)C1 (centres unmarked) [Compound 5, 5-(4-Cyano-3-trifluoromethyl-phenyl)-3a-methyl-4,6-dioxo-3a,4,5,6-tetrahydro-3H-imidazo[1,5-b]pyrazole-2-carboxylic acid ethyl ester] | 5 to 30 |  |  |  | 5 to 30 | Inactive | inactive | 
C[C@]12CC(C(F)(F)F)=NN1C(=O)N(c1ccc(C#N)c(C(F)(F)F)c1)C2=O [Compound 2, (R)-4-(3a-Methyl-4,6-dioxo-2-trifluoromethyl-3a,4-dihydro-3H-imidazo[1,5-b]pyrazol-5-yl)-2-trifluoromethyl-benzonitrile] | 5 to 30 |  | ≥ 30 | 5 to 30 | 5 to 30 |  |  | 
C[C@@]12CC(C(F)(F)F)=NN1[S+]([O-])N(c1ccc(C#N)c(C(F)(F)F)c1)C2=O (stereo partly drawn) [Compound 10, (S)-4-(3a-Methyl-1,3-dioxo-5-trifluoromethyl-3a,4-dihydro-3H-1I4-thia-2,6,6a-triaza-pentalen-2-yl)-2-trifluoromethyl-benzonitrile] | ≥ 30 |  | ≥ 30 | ≥ 30 | 5 to 30 |  |  | 
C[C@@]12CC(C(F)(F)F)=NN1S(=O)(=O)N(c1ccc(C#N)c(C(F)(F)F)c1)C2=O [Compound 11, 4-(3a-Methyl-1,1,3-trioxo-5-trifluoromethyl-3a,4-dihydro-3H-1I6-thia-2,6,6a-triaza-pentalen-2-yl)-2-trifluoromethyl-benzonitrile] | 5 to 30 |  | ≥ 30 | ≥ 30 | 5 to 30 |  |  | 
CC12CNC(=O)N1C(=O)N(c1ccc(Cl)c(C(F)(F)F)c1)C2=O (centres unmarked) [Compound 13, 2-(4-Chloro-3-trifluoromethyl-phenyl)-7a-methyl-dihydro-imidazo[1,5-c]imidazole-1,3,5-trione] | ≥ 30 |  |  |  | ≥ 30 | Inactive | inactive | 
CCOC(=O)C1=NN2C(=O)C(=O)N(c3ccc(C#N)c(C(F)(F)F)c3)C(=O)C2(C)C1 (centres unmarked) [Compound 8, 5-(4-Cyano-3-trifluoromethyl-phenyl)-3a-methyl-4,6,7-trioxo-3,3a,4,5,6,7-hexahydro-pyrazolo[1,5-a]pyrazine-2-carboxylic acid ethyl ester] |  |  | 5 to 30 |  | 5 to 30 |  | inactive | inactive
